Legend:
[1] = biological target: T1, glucosylceramide synthase (Homo sapiens, UniProt Q16739); experiment: microsomal assay measuring conversion of ceramide to glucosylceramide by HPLC (GCS IC50); assay type: biochemical; details: concentration causing 50% inhibition of glucosylceramide synthase activity
T1 construct: Microsomes were isolated from A375 human melanoma cells; endogenous in cells; host or cells: A375 human melanoma cells (microsomal fraction, 100,000 g pellet)
T1 sequence (Q16739 1-394): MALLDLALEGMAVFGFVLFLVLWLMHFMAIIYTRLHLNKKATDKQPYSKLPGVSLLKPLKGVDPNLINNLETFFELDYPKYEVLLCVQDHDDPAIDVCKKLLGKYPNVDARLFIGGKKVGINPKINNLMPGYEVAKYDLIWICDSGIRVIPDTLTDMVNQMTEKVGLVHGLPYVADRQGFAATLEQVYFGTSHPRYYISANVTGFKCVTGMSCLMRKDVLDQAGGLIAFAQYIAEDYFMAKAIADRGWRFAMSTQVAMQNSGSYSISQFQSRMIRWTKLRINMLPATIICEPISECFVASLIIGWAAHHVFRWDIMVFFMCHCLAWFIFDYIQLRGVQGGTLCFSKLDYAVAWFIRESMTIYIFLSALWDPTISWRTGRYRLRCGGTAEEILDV
How it was run: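 Microsomal preparation assayed for glucosylceramide synthase by direct HPLC measurement of ceramide conversion to glucosylceramide. GCS IC50 is the compound concentration giving 50% inhibition of enzyme activity.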

[2] = tested on: GM3 expression on the cell surface, B16 mouse melanoma cells; experiment: cell based phenotypic assay, cell surface GM3 by antibody mediated immunofluorescence, B16 (GM3 B16 IC50); details: Mus musculus, B16 mouse melanoma cells; 50% inhibition of GM3 expression on the cell surface; read-out: GM3 B16 IC50
How it was run: (§1)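 B16 mouse and C32 human melanoma cells; cell-surface GM3 measured by antibody-mediated immunofluorescence, giving IC50.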

[3] = tested on: GM3 expression on the cell surface, C32 human melanoma cells; experiment: cell based phenotypic assay, cell surface GM3 by antibody mediated immunofluorescence, C32 (GM3 C32 IC50); details: Homo sapiens, C32 human melanoma cells; 50% inhibition of GM3 expression on the cell surface; read-out: GM3 C32 IC50
How it was run: as §1

[4] = tested on: B16 mouse melanoma cells; experiment: cell viability in the B16 cell-based assay (Viability, B16 IC50); details: Mus musculus, B16, B16 cells; concentration causing 50% cell death; values greater than 10 represent a lack of cell death; read-out: Viability, B16 IC50
How it was run: (§2)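 Two melanoma lines, mouse B16 and human C32, were treated and surface GM3 quantified by antibody immunofluorescence for IC50. A parallel viability readout gives the concentration killing 50% of cells, with values over 10 indicating no cell death.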

[5] = tested on: C32 human melanoma cells; experiment: cell viability in the C32 cell-based assay (Viability, C32 IC50); details: Homo sapiens, C32, C32 cells; concentration causing 50% cell death; values greater than 10 represent a lack of cell death; read-out: Viability, C32 IC50
How it was run: as §2

| Structure (SMILES) | IC50 [1] [nM] | IC50 [2] [nM] | IC50 [3] [nM] | IC50 [4] [nM] | IC50 [5] [nM] |
| --- | --- | --- | --- | --- | --- |
| COCCCOc1ccc(-c2ccnc(N3CCC(C(=O)NC4(C)CCN5CCC4CC5)CC3)n2)cc1 (stereo not drawn) [Example 67, 1-(4-(4-(3-Methoxypropoxy)phenyl)pyrimidin-2-yl)-N-(4-methyl-1-azabicyclo[3.2.2]nonan-4-yl)piperidine-4-carboxamide] | 1.88 | 7.24 | 0.114 | 4950 | 1000 |
| COCCOc1ccc(-c2cccc(N3CCC(C(=O)NC4(C)CCN5CCC4CC5)CC3)c2)cc1 (stereo not drawn) [Example 68, 1-(4′-(2-Methoxyethoxy)-[1,1′-biphenyl]-3-yl)-N-(4-methyl-1-azabicyclo[3.2.2]nonan-4-yl)piperidine-4-carboxamide] | 21.3 | 132 | 3.53 | 7120 | 3160 |
| COCCOCc1ccc(-c2cccc(N3CCC(C(=O)NC4(C)CCN5CCC4CC5)CC3)c2)cc1 (stereo not drawn) [Example 69, 1-(4′-((2-Methoxyethoxy)methyl)-[1,1′-biphenyl]-3-yl)-N-(4-methyl-1-azabicyclo[3.2.2]nonan-4-yl)piperidine-4-carboxamide] | 36.2 | 303 | 4.64 | 4640 | 1000 |
| COCc1ccc(-c2ccnc(N3CCC(C(=O)NC4(C)CCN5CCC4CC5)CC3)n2)cc1 (stereo not drawn) [Example 70, 1-(4-(4-(Methoxymethyl)phenyl)pyrimidin-2-yl)-N-(4-methyl-1-azabicyclo[3.2.2]nonan-4-yl)piperidine-4-carboxamide] | 3.96 | 15.6 | 0.0905 | 1000 | 1000 |
| CC1(NC(=O)C2CCN(c3nccc(-c4ccc(OCCF)cc4)n3)CC2)CCN2CCC1CC2 (stereo not drawn) [Example 71, 1-(4-(4-(2-Fluoroethoxy)phenyl)pyrimidin-2-yl)-N-(4-methyl-1-azabicyclo[3.2.2]nonan-4-yl)piperidine-4-carboxamide] | 2.48 | 4.29 | 0.126 | 2150 | 10 |
| COCCCOc1ccc(-c2ccnc(N3CCC(C(=O)NC4CN5CCC4CC5)CC3)n2)cc1 (stereo not drawn) [Example 72, 1-(4-(4-(3-Methoxypropoxy)phenyl)pyrimidin-2-yl)-N-(quinuclidin-3-yl)piperidine-4-carboxamide] | 1.16 | 79.5 | 0.26 | 8630 | 464 |
| COCc1ccc(-c2ccnc(N3CCC(C(=O)NC4(C)CN5CCC4CC5)CC3)n2)cc1 (stereo not drawn) [Example 73, 1-(4-(4-(Methoxymethyl)phenyl)pyrimidin-2-yl)-N-(3-methylquinuclidin-3-yl)piperidine-4-carboxamide] | 3.46 | 47.4 | 0.25 | 4640 | 631 |
| COCCOCc1ccc(-c2ccnc(N3CCC(C(=O)NC4(C)CCN5CCC4CC5)CC3)n2)cc1 (stereo not drawn) [Example 74, 1-(4-(4-((2-Methoxyethoxy)methyl)phenyl)pyrimidin-2-yl)-N-(4-methyl-1-azabicyclo[3.2.2]nonan-4-yl)piperidine-4-carboxamide] | 12.8 | 32.5 | 0.71 | ≥ 10000 | 215 |
| COCc1ccc(-c2ccnc(N3CCC(F)(C(=O)NC4(C)CCN5CCC4CC5)CC3)n2)cc1 (stereo not drawn) [Example 75, 4-Fluoro-1-(4-(4-(methoxymethyl)phenyl)pyrimidin-2-yl)-N-(4-methyl-1-azabicyclo[3.2.2]nonan-4-yl)piperidine-4-carboxamide] | 2.83 | 48.9 | 0.383 | 5270 | 316 |
| COCCCOc1ccc(-c2ccnc(N3CCC(F)(C(=O)NC4(C)CN5CCC4CC5)CC3)n2)cc1 (stereo not drawn) [Example 76, 4-Fluoro-1-(4-(4-(3-methoxypropoxy)phenyl)pyrimidin-2-yl)-N-(3-methylquinuclidin-3-yl)piperidine-4-carboxamide] | 1.34 | 58.7 | 0.141 | 3870 | 1000 |
| COCCOCc1ccc(-c2nc(N3CCC(F)(C(=O)NC4(C)CCN5CCC4CC5)CC3)ncc2F)cc1 (stereo not drawn) [Example 77, 4-Fluoro-1-(5-fluoro-4-(4-((2-methoxyethoxy)methyl)phenyl)pyrimidin-2-yl)-N-(4-methyl-1-azabicyclo[3.2.2]nonan-4-yl)piperidine-4-carboxamide] | 1.67 | 86.3 | 0.316 | 3760 | 316 |
| COCc1ccc(-c2ccnc(N3CCC(F)(C(=O)NC4(C)CN5CCC4CC5)CC3)n2)cc1 (stereo not drawn) [Example 80, 4-Fluoro-1-(4-(4-(methoxymethyl)phenyl)pyrimidin-2-yl)-N-(3-methylquinuclidin-3-yl)piperidine-4-carboxamide] | 4 | 68.5 | 0.525 | ≥ 10000 | 215 |
| COCc1ccc(-c2ccnc(N3CCC(F)(C(=O)N[C@]4(C)CN5CCC4CC5)CC3)n2)cc1 [Example 81, (S)-4-Fluoro-1-(4-(4-(methoxymethyl)phenyl)pyrimidin-2-yl)-N-(3-methylquinuclidin-3-yl)piperidine-4-carboxamide] | 2.3 | 48.1 | 0.222 | ≥ 10000 | 316 |
| COCCCOc1ccc(-c2ccnc(N3CCC(F)(C(=O)NC4(C)CCN5CCC4CC5)CC3)n2)cc1 (stereo not drawn) [Example 82, 4-Fluoro-1-(4-(4-(3-methoxypropoxy)phenyl)pyrimidin-2-yl)-N-(4-methyl-1-azabicyclo[3.2.2]nonan-4-yl)piperidine-4-carboxamide] | 1.26 | 42.1 | 0.128 | 2790 | 1000 |
| COCCOCc1ccc(-c2ccnc(N3CCC(F)(C(=O)NC4(C)CN5CCC4CC5)CC3)n2)cc1 (stereo not drawn) [Example 83, 4-Fluoro-1-(4-(4-((2-methoxyethoxy)methyl)phenyl)pyrimidin-2-yl)-N-(3-methylquinuclidin-3-yl)piperidine-4-carboxamide] | 13.4 | 119 | 1.13 | ≥ 10000 | 1000 |
| COCCOCc1ccc(-c2ccnc(N3CCC(F)(C(=O)N[C@]4(C)CN5CCC4CC5)CC3)n2)cc1 [Example 84, (S)-4-Fluoro-1-(4-(4-((2-methoxyethoxy)methyl)phenyl)pyrimidin-2-yl)-N-(3-methylquinuclidin-3-yl)piperidine-4-carboxamide] | 5.35 | 90.3 | 0.621 | ≥ 10000 | 1000 |
| COCCOc1ccc(-c2ccnc(N3CCC(F)(C(=O)NC4(C)CN5CCC4CC5)CC3)n2)cc1 (stereo not drawn) [Example 85, 4-Fluoro-1-(4-(4-(2-methoxyethoxy)phenyl)pyrimidin-2-yl)-N-(3-methylquinuclidin-3-yl)piperidine-4-carboxamide] | 10.5 | 79.9 | 0.389 | ≥ 10000 | 316 |
| COCCOc1ccc(-c2ccnc(N3CCC(F)(C(=O)N[C@]4(C)CN5CCC4CC5)CC3)n2)cc1 [Example 86, (S)-4-Fluoro-1-(4-(4-(2-methoxyethoxy)phenyl)pyrimidin-2-yl)-N-(3-methylquinuclidin-3-yl)piperidine-4-carboxamide] | 3.46 | 48 | 0.241 | ≥ 10000 | 1000 |
| O=C(NC1CN2CCC1CC2)C1(F)CCN(c2nccc(-c3ccc(OCCF)cc3)n2)CC1 (stereo not drawn) [Example 87, 4-Fluoro-1-(4-(4-(2-fluoroethoxy)phenyl)pyrimidin-2-yl)-N-(quinuclidin-3-yl)piperidine-4-carboxamide] | 1.91 | 64.3 | 0.177 | 8910 | 215 |
| O=C(N[C@@H]1CN2CCC1CC2)C1(F)CCN(c2nccc(-c3ccc(OCCF)cc3)n2)CC1 [Example 88, (S)-4-Fluoro-1-(4-(4-(2-fluoroethoxy)phenyl)pyrimidin-2-yl)-N-(quinuclidin-3-yl)piperidine-4-carboxamide] | 1.68 | 56.8 | 0.252 | ≥ 10000 | 1000 |
| COCCOCc1ccc(-c2ccnc(N3CCC(F)(C(=O)NC4(C)CCN5CCC4CC5)CC3)n2)cc1 (stereo not drawn) [Example 89, 4-Fluoro-1-(4-(4-((2-methoxyethoxy)methyl)phenyl)pyrimidin-2-yl)-N-(4-methyl-1-azabicyclo[3.2.2]nonan-4-yl)piperidine-4-carboxamide] | 8.23 | 109 | 1.17 | 9470 | 316 |
